Converted amounts (≈) assume the structure as drawn. Square brackets hold non-standard residues; d marks the D form. Peptide text beside a SMILES is read from it. βAla = NCCC(=O)O

The subject of series [1] is proteolytic enzymes (trypsin, chymotrypsin, pronase E). It counts as in vitro ADME. As to the method: Resistance to proteolysis can be determined according to trypsin, chymotrypsin or pronase E assay, as detailed below in the Methods section, namely by adding to each 90 μl of peptide solution, 10 μl of enzyme solution, containing either a mixture of 0.5 μg trypsin (0.05 mg/ml) and 0.5 μg chymotrypsin (0.05 mg/ml) or 4 μg pronase E (0.4 mg/ml) in 0.001M HCl. The enzymatic degradation of the peptide is monitored at controlled temperature of 25° C. A peptide can be considered to be resistant to proteolysis if it withstands this assay for at least 1 week, maintaining at least 90% of its initial concentration after this period.
(§1) Proteolytic Stability Assay of Peptides:
Stock solution (0.56 mg/ml) of each peptide was prepared by dissolving the peptide in PBS (pH=7.4). […] The enzymatic degradation of the peptide was monitored at controlled temperature of 25° C. by RP-HPLC with detection at 220 nm using Phenomenex C18 4.6×250 mm column with 5 μm particle size and 110 Å pore size. […]
Enzymes concentrations were determined by preliminary experiment that was performed to screen for concentrations allowing complete degradation of C-Modelin-1 within 1-2 hours. 10 μl of enzyme solution with varying concentrations were added to 90 μl of peptide solution (0.56 mg/ml) and enzymatic degradation of the peptide was monitored by RP-HPLC. […]

The subject of the next series is Enterobacter. In kind it is cell-based. As to the method: The IC50 is determined by an essay, suitable for the specific film-forming microorganism in question. For example, in the present invention, the Enterobacter assay, which is described in detail in the methods section below, was used to determine the antimicrobial activities of the tested peptides.
Quantitative Biofilm Growth Inhibition Assay in a 96-Wells Microtiter Plate:
Enterobacter culture (50 ml) was grown in tryptic soy broth media (TBS; prepared according to manufacturer instructions) overnight at 25° C. On the next day the turbidity of the culture was measured at 600 nm (Biomate 5 UV-Vis spectrophotometer, Thermo Fisher Scientific, Waltham, Mass.) and, if necessary, TSB was added to dilute the culture until the OD was 1.
Then 96 wells polystyrene microtiter plates (flat bottom, transparent, Becton Dickinson, Franklin Lakes, New-Jersey) were filled as following: Negative control wells (without bacteria) were filled with 125 μl TSB media and 25 μl of DDW:PBS1:1 buffer solution; Positive control wells (without peptide solution) were filled with 110 μl TSB media, 25 μl of DDW:PBS1:1 buffer solution and 15 μl of Enterobacter culture solution; Wells that contained AMPs at different concentrations were filled with 110 μl TSB media, 25 μl of peptide solution and 15 μl of Enterobacter culture solution.
The plates were incubated at 25° C. overnight. On the next day the plates were gently rinsed 5 times with distilled water to remove the planktonic bacteria and then dried at room temperature for 10 minutes. Then the biofilm on the walls of the wells was dyed by adding 200 μl, of 3% crystal violet (CV) to the wells. After 15 minutes at room temperature, the plates were gently rinsed 5 times with distilled water to remove excess dye and dried at room temperature for 10 minutes (Djordjevic, Wiedmann & McLandsborough 2002). The dry plates were filled with 200 μl ethanol, covered and gently agitated (Duomax 1030 rocking platform shaker, Heidolph, Kelheim, Germany) for 1 hour. The absorbance of extracted color was measured in a plate reading spectrophotometer (Infinite M200, Tecan, Mannedorf, Switzerland) at 595 nm.
The effect of linking the arm to a peptide, on the antimicrobial activity of the peptides was assessed by measuring the peptide activity in 96-microtitter plates in solution and comparing to activities of the normal peptides. Experiments were performed in water and in 3% NaCl solution. Table 6 presents the antimicrobial activity (IC50) of peptide-arm systems, in water and in 3% NaCl solution. Values were extracted from dose-response curves.
Different concentration solutions of peptides, bought or prepared as detailed in the methods section above, were prepared by diluting a stock solution with 1% ACN. Stock solution was prepared by dissolving water soluble peptides in DDW:PBS1:1. PBS (pH=7.4) was prepared by adding to 800 ml DDW, 8 grams NaCl, 0.2 grams KCl, 1.44 grams Na2HPO4 and 0.2 grams KH2PO4.
To evaluate whether attachment of a tether to the AMPs has an effect on the inhibitory potency, a PEGylated peptide (HS-PEG-D-Modelin-1) was prepared, and its inhibitory potency compared to that of the ‘normal’ peptide All-D-Modelin-1. Peptides were diluted in 2-fold serial dilutions, and the antibacterial activity of the peptides was determined in sterile 96-multititter plates.

The subject of series [2] is biofilm. The series can be described thus: Biovolume of biofilm on graft-polymerized RO membranes (FIGS. 4-6). Particulars: immobilized on RO membrane after graft polymerization and 1,4-butadiamine; FIGS. 4 and 5. In kind it is cell-based. The text has this:
FIGS. 4 and 5 show the biovolume of biofilm on RO membranes modified with Cys-Modelin-1, whereas in FIG. 4: (A) is an unmodified membrane (control), (B) is after Graft polymerization (GP), (C) is after GP and 1,4-butadiamine, (D) is after GP, 1,4-butadiamine and MI (maleimide-hexanoic acid), and (E) is after GP, 1,4-butadiamine, MI and C-Modelin-1.
Another example for immobilization through multivalent system is shown in FIG. 6, showing the volume of the biofilm by graft polymerization with 0.2:0.2 M MA:PEGM and immobilization with All-D-Cys-Modelin-1. […] The inhibition was very much dependent of the graft polymerization step: Grafting by 0.2:0.2 M of monomers PEGMA:MA (see Scheme 6 for monomer structures) gave the best results.

A further series deals with pronase E. In kind it is in vitro ADME. As to the method: as §1
Stock solution (0.56 mg/ml) of each peptide was prepared by dissolving the peptide in PBS (pH=7.4). To each 90 μl of peptide solution 10 μl of enzyme solution, containing either a mixture of 0.5 μg trypsin (0.05 mg/ml) and 0.5 μg chymotrypsin (0.05 mg/ml) or 4 μg pronase E (0.4 mg/ml) in 0.001M HCl, was added. The enzymatic degradation of the peptide was monitored at controlled temperature of 25° C. by RP-HPLC with detection at 220 nm using Phenomenex C18 4.6×250 mm column with 5 μm particle size and 110 Å pore size. Elution gradient was: t=0 minutes, B=15%; t=5 minutes, B=15%; t=40 minutes, B=70%; t=42 minutes, B=95%; t=52 minutes, B=95% (flow rate 1 ml/minute).
Enzymes concentrations were determined by preliminary experiment that was performed to screen for concentrations allowing complete degradation of C-Modelin-1 within 1-2 hours. 10 μl of enzyme solution with varying concentrations were added to 90 μl of peptide solution (0.56 mg/ml) and enzymatic degradation of the peptide was monitored by RP-HPLC.
The enzymatic degradation was monitored at a fixed temperature of 25° C. by RP-HPLC at 220 nm, as described before. Elution gradient started with 85% A/15% B for 5 minutes continued with 30% A/70% B for 35 minutes and ended with 5% A-95% B for 12 minutes.
All the enzymes were used in concentrations allowing complete degradation of C-Modelin-1 within […].

Series [3] has as its system biofilm. The series can be described thus: Confocal microscope analysis of biofilm developed on modified RO membranes. Particulars: biofilm on RO membrane modified with the peptide. In kind it is cell-based. The procedure:
b) Quantitative Measurements:
For biofilm growth measurements, modified membranes were tested in static conditions and in a flow-through system.
For static conditions membranes were glued with RTV 186 glue to a 1 cm×1 cm glass slides and were incubated in 24-wells plate, containing Green fluorescent protein (GFP) expressing Pseudomonas aeruginosa culture, for 18 hours (37° C.). Then, the membranes were washed with DDW to remove planktonic bacteria and the formed biofilm was detected by Leica DM 2500 confocal laser scanning microscope (CLSM, Wetzlar, Germany).
For the flow-through system, 1 cm×1 cm membranes were glued to a 2.6 cm×7.6 cm glass slide and the slide was placed in a flow cell. First, GFP expressing Pseudomonas aeruginosa was introduced to the cell and incubated for 1 hour. Then, the planktonic bacteria were washed out and sterile growth media was brought in to the cell with 50 ml/h flow rate. After 24 hours the sample was removed from the cell and biofilm fluorescence was detected by confocal laser scanning microscope. The dyed membranes were analyzed by a confocal laser scanning microscope.
Quantitative and qualitative indications for biofilm formation on modified vs. non modified RO membranes were checked.
The results of the confocal microscope analysis of the biofilm that developed on the different membranes showing reduced biofilm formation on the modified membranes are summarized in Table 15.

In general, IC50 refers to the concentration that gives 50% inhibition. Read a low IC50 as greater potency. With `CC(C)C[C@@H](NC(=O)[C@@H](CCCCN)NC(=O)[C@H](N)CS)C(=O)N[C@H](Cc1c[nH]c2ccccc12)C(=O)N[C@H](CCCCN)C(=O)N[C@H](CCCCN)C(=O)N[C@H](Cc1c[nH]c2ccccc12)C(=O)N[C@H](C)C(=O)N[C@H](CCCCN)C(=O)N[C@H](CCCCN)C(=O)N[C@H](Cc1c[nH]c2ccccc12)C(=O)N[C@H](CC(C)C)C(=O)N[C@H](CCCCN)C(=O)N[C@H](CC(C)C)C(=O)N[C@H](Cc1c[nH]c2ccccc12)C(=O)N[C@H](CCCCN)C(=O)N[C@H](C)C(=O)N[C@H](Cc1c[nH]c2ccccc12)C(=O)O` [All-D C-Modelin-1, CKLWKKWAKKWLKLWKAW] (H-[dC][dK][dL][dW][dK][dK][dW][dA][dK][dK][dW][dL][dK][dL][dW][dK][dA][dW]-OH), in series [1], the “higher stability compared with the unprotected Cys-Modelin-1” value is listed as “over 100 fold” and the “remained stable when treated with the proteolytic enzymes” value is listed as “over 2 weeks”. The compound further came in with an IC50 with Enterobacter of 10 µg/mL (≈ 4.11 µM).
`CC(C)C[C@H](NC(=O)[C@H](CCCCN)NC(=O)[C@H](CC(C)C)NC(=O)[C@H](Cc1c[nH]c2ccccc12)NC(=O)[C@H](CCCCN)NC(=O)[C@H](CCCCN)NC(=O)[C@H](C)NC(=O)[C@H](Cc1c[nH]c2ccccc12)NC(=O)[C@H](CCCCN)NC(=O)[C@H](CCCCN)NC(=O)[C@H](Cc1c[nH]c2ccccc12)NC(=O)[C@H](CC(C)C)NC(=O)[C@H](CCCCN)NC(=O)[C@@H](N)CS)C(=O)N[C@@H](Cc1c[nH]c2ccccc12)C(=O)N[C@@H](CCCCN)C(=O)N[C@@H](C)C(=O)N[C@@H](Cc1c[nH]c2ccccc12)C(=O)O` [C-Modelin-1, CKLWKKWAKKWLKLWKAW] (H-CKLWKKWAKKWLKLWKAW-OH) registered a reduced biofilm growth in the series on biofilm [2] of 65%. Also, in the series on pronase E, the “digestion first detected after” value was determined as 5 min and the “peptides completely degraded after” value was found to be 135 min. In addition, the IC50 with Enterobacter is 11 µg/mL (≈ 4.52 µM).
For the compound `CC(C)C[C@H](NC(=O)[C@H](CCCCN)NC(=O)[C@H](CC(C)C)NC(=O)[C@H](Cc1c[nH]c2ccccc12)NC(=O)[C@H](CCCCN)NC(=O)[C@H](CCCCN)NC(=O)[C@H](C)NC(=O)[C@H](Cc1c[nH]c2ccccc12)NC(=O)[C@H](CCCCN)NC(=O)[C@H](CCCCN)NC(=O)[C@H](Cc1c[nH]c2ccccc12)NC(=O)[C@H](CC(C)C)NC(=O)[C@H](CCCCN)NC(=O)[C@@H](N)CS)C(=O)N[C@@H](Cc1c[nH]c2ccccc12)C(=O)N[C@@H](CCCCN)C(=O)N[C@@H](C)C(=O)N[C@@H](Cc1c[nH]c2ccccc12)C(=O)NCCC(=O)O` [C-Modelin-1-βAla, CKLWKKWAKKWLKLWKAW-βAla] (H-CKLWKKWAKKWLKLWKAW[βAla]-OH), in the series on pronase E, the “digestion first detected after” value was 5 min and the “peptides completely degraded after” value worked out at 135 min. For the same compound, the IC50 in the series with Enterobacter worked out at 4 µg/mL (≈ 1.6 µM).
Regarding `N=C(N)NCCC[C@H](NC(=O)CNC(=O)CNC(=O)CNC(=O)[C@@H](N)CS)C(=O)N[C@@H](CCCNC(=N)N)C(=O)N[C@@H](Cc1c[nH]c2ccccc12)C(=O)N[C@@H](Cc1c[nH]c2ccccc12)C(=O)N[C@@H](CCCNC(=N)N)C(=O)N[C@@H](Cc1ccccc1)C(N)=O` [CG3-Hexapeptide-4, CGGGRRWWRF-NH2] (H-CGGGRRWWRF-NH2; N-terminus assumed), in the series with biofilm [3], the Biovolume was 8.9 * 10^4 μm^3 and the Thickness stood at 9.5 μm. Besides, in the series on Enterobacter, the “IC50 Normal conditions” value was determined as 160 µg/mL (≈ 125 µM) and the “IC50 in 3% Aqueous NaCl” value stood at 150 µg/mL (≈ 117 µM).
Take `CC(C)C[C@H](NC(=O)[C@H](CCCCN)NC(=O)CNC(=O)CNC(=O)CNC(=O)CNC(=O)[C@@H](N)CS)C(=O)N[C@@H](Cc1c[nH]c2ccccc12)C(=O)N[C@@H](CCCCN)C(=O)N[C@@H](CCCCN)C(=O)N[C@@H](Cc1c[nH]c2ccccc12)C(=O)N[C@@H](C)C(=O)N[C@@H](CCCCN)C(=O)N[C@@H](CCCCN)C(=O)N[C@@H](Cc1c[nH]c2ccccc12)C(=O)N[C@@H](CC(C)C)C(=O)N[C@@H](CCCCN)C(=O)N[C@@H](CC(C)C)C(=O)N[C@@H](Cc1c[nH]c2ccccc12)C(=O)N[C@@H](CCCCN)C(=O)N[C@@H](C)C(=O)N[C@@H](Cc1c[nH]c2ccccc12)C(=O)O` [CG4-Modelin-1] (H-CGGGGKLWKKWAKKWLKLWKAW-OH; N-terminus assumed): in the series on biofilm [3], the Biovolume is 9.3 * 10^4 μm^3 and the Thickness turned out to be 9.5 μm. In addition, in the series on Enterobacter, the “IC50 Normal conditions” value worked out at 100 µg/mL (≈ 37.6 µM).
With `O=C(O)CCCCCN1C(=O)C=CC1=O` [maleimide-hexanoic acid, 6-maleimidohexanoic acid], in the series with biofilm [2], the reduced biofilm growth was 95%.

For the origin of these results see US9175036B2, “Antimicrobial water treatment membranes and production thereof” (BEN-GURION UNVERSITY OF THE NEGEV RESEARCH AND DEVELOPMENT …, priority 2009, dated 2015).
